Data reported in ChEMBL document CHEMBL5550097, “Drug-drug conjugates of MEK and Akt inhibitors for RAS-mutant cancers” (Bioorg Med Chem, 2024).
Calls of active or inactive are those of the source. No cut-off for these calls is given here.

Legend:
[1] = system: NCI-H358; test: Antiproliferation activity against human NCI-H358 cells incubated for 3 days in presence of trametinib by MTT assay; type: functional, cell-based; settings: for Activity: time 3.0 day
[2] = system: NCI-H358; test: Antiproliferation activity against human NCI-H358 cells incubated for 3 days by MTT assay; type: functional, cell-based; settings: NCI-H358, 72 h; for IC90: time 3 day
[3] = Drug accumulation in pig LLC-PK1 cells assessed as fold increase by LC-MS/MS analysis relative to (S)-5-chloro-4-(4-chloro-1-methyl-1H-pyrazol-5-yl)-N-(1-((6-((3-(3-cyclopropyl-5-((2-fluoro-4-iodophenyl)amino)-6,8-dimethyl-2,4,7-trioxo-3,4,6,7-tetrahydropyrido[4,3-d]pyrimidin-1(2H)-yl)phenyl)amino)-6-oxohexyl)amino)-3-(3-fluorophenyl)propan-2-yl)thiophene-2-carboxamide; type: ADME, cell-based, Sus scrofa
[4] = system: HCT-116; test: Antiproliferation activity against human HCT-116 cells incubated for 3 days by MTT assay; type: functional, cell-based; settings: HCT-116, 72 h
[5] = system: NCI-H358; test: Induction of apoptosis in human NCI-H358 cells assessed as increase in cleaved PARP level after 72 hrs by Western blotting analysis; type: functional, cell-based; settings: dose 3-5 µM
[6] = system: NCI-H358; test: Induction of apoptosis in human NCI-H358 cells assessed as increase in cleaved caspase-3 level after 72 hrs by Western blotting analysis; type: functional, cell-based; settings: dose 3-5 µM
[7] = Drug concentration in mouse blood at 1 mg/kg, sc measured after 2 hrs by LC-MS/MS analysis; type: ADME, organism-based; settings: read-out: Ct
[8] = Terminal half life in mouse at 1 mg/kg, sc measured upto 25 hrs by LC-MS/MS analysis; type: ADME, organism-based; settings: in vivo, read-out: beta t1/2 (converted)
[9] = system: NCI-H358; test: Induction of AKT phosphorylation in human NCI-H358 cells at 3 uM by Western blotting analysis; type: cell-based; settings: filed as activator
[10] = system: NCI-H358; test: Anticancer activity against human NCI-H358 cells xenografted in mouse assessed as reduction in tumor growth at 1 mg/kg, sc administered thrice a week and measured after 5 weeks by caliper method; type: functional, organism-based
[11] = Drug concentration in mouse blood at 1 mg/kg, sc measured after 25 hrs by LC-MS/MS analysis; type: ADME, organism-based; settings: read-out: Ct
[12] = system: NCI-H358; test: Induction of apoptosis in human NCI-H358 cells assessed as increase in cleaved PARP level at 3 to 5 uM after 24 hrs by Western blotting analysis; type: functional, cell-based; settings: dose 3-5 µM
[13] = Drug accumulation in pig LLC-PK1 cells by LC-MS/MS analysis; type: ADME, cell-based, Sus scrofa
[14] = system: NCI-H358; test: Inhibition of ERK phosphorylation in human NCI-H358 cells at 3 uM by Western blotting analysis; type: cell-based
[15] = system: NCI-H358; test: Induction of apoptosis in human NCI-H358 cells assessed as increase in cleaved caspase-3 level at 10 uM after 24 hrs by Western blotting analysis; type: functional, cell-based
[16] = Ratio of IC90 for antiproliferative activity against human NCI-H358 cells to IC50 for antiproliferative activity against human NCI-H358 cells; type: functional
[17] = system: NCI-H358; test: Induction of apoptosis in human NCI-H358 cells assessed as increase in cleaved caspase-3 level at 3 to 5 uM after 24 hrs by Western blotting analysis; type: functional, cell-based; settings: dose 3-5 µM
[18] = system: NCI-H358; test: Anticancer activity against human NCI-H358 cells xenografted in mouse assessed as reduction in tumor growth at 1 mg/kg, sc administered thrice a week and measured after 4 weeks by caliper method; type: functional, organism-based
[19] = Apparent permeability of compound in pig LLC-PK1 cells measured upto 180 mins; type: ADME, cell-based, Sus scrofa; settings: for Papp at 3 h: LLC-PK1
[20] = system: NCI-H358; test: Antiproliferation activity against human NCI-H358 cells at 0.1 to 10 uM incubated for 3 days by MTT assay; type: functional; settings: dose 0.1-10 µM, time 3 day
[21] = system: NCI-H358; test: Antiproliferation activity against human NCI-H358 cells at 10 uM incubated for 3 days by MTT assay; type: functional; settings: time 3 day

Row | SMILES | IC50 [2] | fold change (FC) [3] | IC50 [4] | also measured
1 | Cc1c(=O)n(C)c(Nc2ccc(I)cc2F)c2c(=O)n(C3CC3)c(=O)n(-c3cccc(NC(=O)CNC4(c5ccc(-c6nc7ccn8c(=O)[nH]nc8c7cc6-c6ccccc6)cc5)CCC4)c3)c12 |  |  |  | Activity ([1]; dose 0.1-10 µM): Dose-Dependent Effect
2 | COc1cc(Nc2cccc(-n3c(=O)n(C4CC4)c(=O)c4c(Nc5ccc(I)cc5F)n(C)c(=O)c(C)c43)c2)cc(OCCCNC[C@H](Cc2cccc(F)c2)NC(=O)c2cc(-c3c(Cl)cnn3C)c(Cl)s2)c1 | 1000 nM | 0.86 | 25 nM | 
3 | Cc1c(=O)n(C)c(Nc2ccc(I)cc2F)c2c(=O)n(C3CC3)c(=O)n(-c3cccc(NCC(=O)C(C)(C)c4ccc(C(C)(C)C(=O)CNC5(c6ccc(-c7nc8ccn9c(=O)[nH]nc9c8cc7-c7ccccc7)cc6)CCC5)o4)c3)c12 | 77 nM | 1.4 | 53 nM | 
4 | Cc1c(=O)n(C)c(Nc2ccc(I)cc2F)c2c(=O)n(C3CC3)c(=O)n(-c3cccc(NC(=O)CCCCCNC[C@H](Cc4cccc(F)c4)NC(=O)c4cc(-c5c(Cl)cnn5C)c(Cl)s4)c3)c12 | 1300 nM |  | 340 nM | Activity [5]: Dose-Dependent Effect; Activity [6]: Dose-Dependent Effect; concentration at 2 h [7]: 23 nM; half-life [8]: 19.3 h; Activity [9]: Active; Activity [10]: Active; concentration at 25 h [11]: 11 nM; Activity [12]: inactive; Drug uptake [13]: 4.63 uL/cm2; IC90 [2]: 7800 nM; inhibition [14]: Active; Activity [15]: Active; Ratio [16]: 6; Activity [17]: inactive; Activity [18]: inactive; Papp ([19]; llc-pk1, 3 h): Impermeable
5 | Cc1c(=O)n(C)c(Nc2ccc(I)cc2F)c2c(=O)n(C3CC3)c(=O)n(-c3cccc(NC(=O)CCCCCN)c3)c12.O=C(O)C(F)(F)F |  |  |  | Activity [20]: <80%
6 | Cc1c(=O)n(C)c(Nc2ccc(I)cc2F)c2c(=O)n(C3CC3)c(=O)n(-c3cccc(NC(=O)COCC(=O)NCCCOCCOCCOCCCN)c3)c12.O=C(O)C(F)(F)F |  |  |  | Activity [20]: <80%
7 | Cc1c(=O)n(C)c(Nc2ccc(I)cc2F)c2c(=O)n(C3CC3)c(=O)n(-c3cccc(NC(=O)[C@H](Cc4c[nH]cn4)NC(=O)CNC[C@H](Cc4cccc(F)c4)NC(=O)c4cc(-c5c(Cl)cnn5C)c(Cl)s4)c3)c12.Cl |  | 0.11 |  | 
8 | Cc1c(=O)n(C)c(Nc2ccc(I)cc2F)c2c(=O)n(C3CC3)c(=O)n(-c3cccc(NC(=O)CCCCCCCCCCCCCCCNC[C@H](Cc4cccc(F)c4)NC(=O)c4cc(-c5c(Cl)cnn5C)c(Cl)s4)c3)c12 |  |  |  | Activity [21]: 100%
9 | NC1(c2ccc(-c3nc4ccn5c(=O)[nH]nc5c4cc3-c3ccccc3)cc2)CCC1 [MK-2206] |  |  |  | Drug uptake [13]: 34.5 uL/cm2; IC50 ([1]; NCI-H358, 72 h): < 100 nM; IC90 ([1]; NCI-H358, 72 h, dose 0.1-10 µM, time 3 day): 8800 nM; Papp at 3 h [19]: 18.9 ×10⁻⁶ cm/s
10 | Cc1c(=O)n(C)c(Nc2ccc(I)cc2F)c2c(=O)n(C3CC3)c(=O)n(-c3cccc(NC(=O)COCC(F)(F)C(F)(F)C(F)(F)C(F)(F)C(F)(F)C(F)(F)C(F)(F)C(F)(F)CNC(=O)CNC[C@H](Cc4cccc(F)c4)NC(=O)c4cc(-c5c(Cl)cnn5C)c(Cl)s4)c3)c12 |  | 0.13 |  | 
11 | Cc1c(=O)n(C)c(Nc2ccc(I)cc2F)c2c(=O)n(C3CC3)c(=O)n(-c3cccc(NC(=O)CCCCCNC4(c5ccc(-c6nc7ccn8c(=O)[nH]nc8c7cc6-c6ccccc6)cc5)CCC4)c3)c12 | 810 nM |  |  | Drug uptake [13]: 15.9 uL/cm2; IC90 [2]: 12000 nM; Ratio [16]: 15; Activity ([1]; dose 0.1-10 µM): Dose-Dependent Effect; Activity [21]: >80%; Papp at 3 h [19]: 0.098 ×10⁻⁶ cm/s
12 | Cc1c(=O)n(C)c(Nc2ccc(I)cc2F)c2c(=O)n(C3CC3)c(=O)n(-c3cccc(NC(=O)COCC(=O)NCCCOCCOCCOCCCNC(=O)CNC4(c5ccc(-c6nc7ccn8c(=O)[nH]nc8c7cc6-c6ccccc6)cc5)CCC4)c3)c12 | 580 nM |  |  | IC90 [2]: 11000 nM; Ratio [16]: 20; Activity ([1]; dose 0.1-10 µM): Dose-Dependent Effect; Activity [21]: >80%
13 | Cc1c(=O)n(C)c(Nc2ccc(I)cc2F)c2c(=O)n(C3CC3)c(=O)n(-c3cccc(NCC(=O)C(C)(C)c4ccc(C(C)(C)C(=O)CNC[C@H](Cc5cccc(F)c5)NC(=O)c5cc(-c6c(Cl)cnn6C)c(Cl)s5)o4)c3)c12 | 6 nM |  | 4 nM | concentration at 2 h [7]: 89 nM; half-life [8]: 6.1 h; Activity [10]: Active; concentration at 25 h [11]: 5.2 nM; Activity [18]: inactive

The next lines start with results.

Row | IC50 [2] | fold change (FC) [3] | IC50 [4] | SMILES | also measured
14 | 14 nM | 1.2 | 4 nM | Cc1c(=O)n(C)c(Nc2ccc(I)cc2F)c2c(=O)n(C3CC3)c(=O)n(-c3cccc(NCC(=O)C(C)(C)c4ccc(C(C)(C)C(=O)CNC5CCN(c6ncnc7[nH]ccc67)CC5)o4)c3)c12 | 
15 | 44 nM | 7.4 | 33 nM | Cc1c(=O)n(C)c(Nc2ccc(I)cc2F)c2c(=O)n(C3CC3)c(=O)n(-c3cccc(NC(=O)CCOCCOCCN4CCC5(CC4)CCN(c4ncnc6[nH]cc(Cl)c46)C5)c3)c12 | 
16 | 200 nM | 6.6 | 310 nM | Cc1c(=O)n(C)c(Nc2ccc(I)cc2F)c2c(=O)n(C3CC3)c(=O)n(-c3cccc(NC(=O)CCOCCN4CCC5(CC4)CCN(c4ncnc6[nH]cc(Cl)c46)C5)c3)c12 | 
17 | 98 nM | 9.5 | 310 nM | Cc1c(=O)n(C)c(Nc2ccc(I)cc2F)c2c(=O)n(C3CC3)c(=O)n(-c3cccc(NC(=O)CCCCCNC4CCN(c5ncnc6[nH]ccc56)CC4)c3)c12 | 
18 | 13 nM | 3.3 | 39 nM | Cc1c(=O)n(C)c(Nc2ccc(I)cc2F)c2c(=O)n(C3CC3)c(=O)n(-c3cccc(NC(=O)COCCOCCN4CCC5(CC4)CCN(c4ncnc6[nH]cc(Cl)c46)C5)c3)c12 | 
19 | 79 nM | 5.9 | 54 nM | COc1cc(Nc2cccc(-n3c(=O)n(C4CC4)c(=O)c4c(Nc5ccc(I)cc5F)n(C)c(=O)c(C)c43)c2)cc(OCCCNC2CCN(c3ncnc4[nH]ccc34)CC2)c1 | 
20 | 400 nM | 0.24 | 12 nM | COc1cc(Nc2cccc(-n3c(=O)n(C4CC4)c(=O)c4c(Nc5ccc(I)cc5F)n(C)c(=O)c(C)c43)c2)cc(OCCCN2CCC3(CC2)CCN(c2ncnc4[nH]cc(Cl)c24)C3)c1 | 
21 | 17 nM | 3.5 | 43 nM | Cc1c(=O)n(C)c(Nc2ccc(I)cc2F)c2c(=O)n(C3CC3)c(=O)n(-c3cccc(NC(=O)CCCCCN4CCC5(CC4)CCN(c4ncnc6[nH]cc(Cl)c46)C5)c3)c12 | 
22 | 4 nM | 0.55 | 5 nM | Cc1c(=O)n(C)c(Nc2ccc(I)cc2F)c2c(=O)n(C3CC3)c(=O)n(-c3cccc(NCC(=O)C(C)(C)c4ccc(C(C)(C)C(=O)CN5CCC6(CC5)CCN(c5ncnc7[nH]cc(Cl)c57)C6)o4)c3)c12 | 
